# Test results as given in patent US11506670B2, “Method of genome-wide direct identification of electrophile-sensing targets” (Cornell University, priority 2018, dated 2022).
# Columns and labels:
# Assay type in all cases: cell-based, human
# Nrf2-AR pathway = test: Flow cytometry ARE-GFP reporter assay
# Method: (i) Transient transfection using TransIT-2020. Perform the transfection as described in Step 40 Option (C) (i). Briefly: Transfect the cells with ARE:GFP, pFN21a-Halo-Keap1, and pcDNA3.1 myc-Nrf2 in a 3:1:1 ratio by mass. For transient transfection of cells in a single well of a 48-well plate, in 26 μL of antibiotic-free, serum-free media add 156 ng of ARE:GFP, 52 ng of pFN21a-Halo-TEV-Keap1, and 52 ng of pcDNA3.1 myc-Nrf2 (260 ng total) followed by the addition of 0.78 μL of TransIT-2020. The lipoplex is mixed gently and incubated at room temperature for 20 min.
# (iv) Treatment of cells with T-REX™ delivery photocaged precursor and photo-uncaging (TIMING: 7 hours). […]
# In this flow cytometry assay, live cells are first gated by forward (size) and side scatter to give a general population of healthy cells (FIG. 26A). […] Analyzing this scatter group for green fluorescence (AR reporter) told a slightly different story to that painted by previous ensemble experiments (Parvez et al., “Substoichiometric Hydroxynonenylation of a Single Protein Recapitulates Whole-Cell-Stimulated Antioxidant Response,” J. Am. Chem. Soc. 137:10-13 (2015); Lin et al., “A Generalizable Platform for Interrogating Target- and Signal-Specific Consequences of Electrophilic Modifications in Redox-Dependent Cell Signaling,” J. Am. Chem. Soc. 137:6232-44 (2015), which are hereby incorporated by reference in their entirety).
# NF-κB-signaling (Ube2V1) = test: NF-κB dual luciferase reporter assay after T-REX on Halo-Ube2V1; conditions: T-REX HNEylation of Ube2V1, coexpression of Ube2N
# Method: 1.5-1.6×10^5 HEK 293T cells were seeded in each well of a 48-well plate. 24 h later, the cells were transfected with 120 ng of the designated HaloTag fusion gene plasmid and 120 ng of NF-kB-Firefly luciferase: pCMV-Renilla luciferase (40:1) mix, using TransIT-2020 transfection agent. 24 h post-transfection, cells were treated with 25 μM Ht-PreHNE or vehicle (corresponding volume of DMSO alone) for 2.5 h, rinsed three times and irradiated with 365 nm UV light for 10 min. The cells were incubated for a further 8 h. For dual luciferase assay, cells in each well were gently washed with 1×DPBS and lysed in 65 μL of 1× passive lysis buffer containing in final concentrations 25 mM Tris (pH 7.8), 2 mM 1,2-CDTA, 2 mM DTT, 1 mg/mL BSA, 1% Triton X-100, and 10% Glycerol. 20 μL of the lysate was transferred to a white opaque 96-well plate (Corning). Firefly luciferase was read after adding 50 μL Firefly substrate (75 mM HEPES pH 8.0, 4 mM MgSO4, 20 mM DTT, 0.1 mM EDTA, 0.53 mM ATP, 0.27 mM Coenzyme-A, 0.47 mM D-Luciferin Firefly). Subsequently, 50 μL of Stop and Glow substrate (7.5 mM sodium acetate pH 5.0, 400 mM sodium sulfate, 10 mM CDTA, 15 mM sodium pyrophosphate, 0.025 mM APMBT, 5.5 μM Coelenterazine) was added and Renilla luciferase activity was measured.
# γ-H2AX = γ-H2AX immunofluorescence in HEK293T cells
# Method: Cells were grown to 70% confluence in 35 mm glass-bottomed dishes and transfected with HaloTagged plasmids. T-REX™ delivery was performed as mentioned above. […] The fixative was aspirated and the cells washed three times with 1×DPBS with 5-min incubation at room temperature. Blocking and permeabilization was performed in one-step by incubation at 37° C. for 1 h in 1×DPBS containing 3% BSA and 0.2% Triton X-100. Cells were subsequently incubated with primary antibody (1:300, Table 4) in incubation buffer (1% BSA, 0.02% Triton X-100 in 1×DPBS) for 2 h at room temperature. Cells were rinsed 3 times with 1×DPBS with 5 min incubation for each wash and subsequently incubated in dark for 1 h at room temperature with corresponding second antibody (1:1000, Table 4) in incubation buffer. Cells were rinsed 3 times with 1×DPBS with 5 min incubation for each rinse. DAPI (Sigma) was freshly prepared in 1×DPBS from 2 mg/mL wt./v stock solution in water and added to the wells at the final concentration of 0.2 μg/mL. The samples were incubated in dark for 1 min and washed once with 1×DPBS and stored at 4° C. in dark till images were taken using a Zeiss LSM 710 meta confocal fluorescence microscope. Image analysis was performed using Image-J (NIH).
compound,measurement,setting,value
"CCCCCC(O)/C=C/C=O (stereo not drawn) [HNE, 4-hydroxynonenal]",AR-driven GFP signal,Nrf2-AR pathway; T-REX delivery on Halo-Keap1,increase in AR in all but cells with the highest basal AR
same,AR-driven GFP signal,Nrf2-AR pathway; whole-cell HNE treatment,strongly increases AR in a subset of cells
same,upregulation in NF-κB-signaling relative to all controls,NF-κB-signaling (Ube2V1),3 fold
same,γ-H2AX upregulation in Ube2V2-C69S-expressing cells,"γ-H2AX; T-REX, over 18-h time course",no significant γ-H2AX upregulation
same,time post light exposure up to which increased γ-H2AX could be measured,γ-H2AX; basal after 24 h,up to 18 h
same,increase in cellular γ-H2AX following Ube2V2(C69)-targeted-HNEylation,"γ-H2AX; wt-Halo-Ube2V2, T-REX",approximately two-fold
